SMILES strings stand for the structures. Counter-ions that a name gives are not always drawn.

The subject of data set [1] is L. infantum amastigotes (intracellular, in J774.A1 macrophages). As to the kind of experiment: Viability assay for L. infantum amastigotes. In kind it is cell-based. The settings on record: Leishmania infantum, J774.A1, 24 h, read-out: L. infantum amastigote viability [% at 20 μM]. The protocol:
Viability assay for L. infantum amastigotes. L. infantum promastigotes from the reference strain MHOM/MA/67/ITMAP263, stably transfected with a vector encoding a red-shifted luciferase gene (RE9HLUC; Branchini et al.; Benítez et al.) were grown in fresh complete RPMI medium (RPMI basic medium containing 25 mM HEPES, 10% v/v iFBS, 100 U/mL penicillin, 100 μg/mL streptomycin and 15 μg/mL hygromycin B) at 28°C in sealed culture flasks. Metacyclic promastigotes were obtained by a negative selection procedure using peanut agglutinin and used to infect murine macrophages (cell line J774.A1) at a 1:10 ratio for macrophages (5×10^6 cells): parasites (5×10^7 cells). 200 μL of this suspension was added per well to a 96-well culture microplate, which was then incubated at 37°C for 24 h in a 5% CO2/95% air atmosphere incubator. […] The culture microplate was incubated in the CO2 incubator for additional 24 h. Next, the supernatant was removed and the microplate wells were washed with pre-warmed PBS (200 μL). […] All conditions were tested in triplicates and the percentage amastigote viability was calculated as described for infective T. b. brucei, with errors expressed as one SD, estimated as σ^n-1.
A macrophage cell density correction factor based on the incorporation of propidium iodide was calculated and applied to normalise amastigote viability related to host cell density in the well. For a detailed explanation of the protocol, see Benítez et al..

Data set [2] in a line: Kinetic aqueous solubility by nephelometry. The data set is classed as physicochemical. The settings on record: phosphate-buffered saline, aqueous buffer, kinetic from dmso stock, PBS pH 7.4, 1% DMSO, 25°C, logS = decadic logarithm of molar solubility [M]. The protocol: Phosphate-buffered saline pH 7.4 was prepared according to the European Pharmacopeia 10.4 by dissolving 2.38 g sodium monohydrogen phosphate dodecahydrate, 0.19 g potassium dihydrogen phosphate and 8.0 g sodium chloride in demineralised water (to a total volume of 1000 mL). The pH was adjusted to a value of 7.4 with hydrochloric acid. The buffer was filtered through a 0.45 μm membrane filter (Chromafil® Xtra PES-45/25) before use.
The kinetic aqueous solubility was determined by nephelometry. The measurements were performed on the NEPHELOstar Plus, with accompanying software Omega 5.11 and MARS 3.20 (BMG LABTECH, Ortenberg, Germany). Generally, 2 dilution series of 1–2 weighed portions of each substance were measured. First, stock solutions of the compounds were prepared in DMSO. A series of dilutions in DMSO were prepared from one stock solution to obtain at least 3 concentrations below and 3 concentrations above the precipitation point in the measured series. The specific concentrations were usually measured as duplicates.
The 96-well plate (Corning UV transparent flat-bottom 96-well plate, Corning Incorporated, Kennenbunk, ME, USA) was inspected for contamination and scratches and measured without samples prior to the solubility measurement of the compounds. 198 μL of phosphate-buffered saline pH 7.4 was placed in a 96 well plate for each well to be measured. 2 μL of a DMSO solution was added and immediately mixed by moving the pipette plunger. This solution either contained no substance—and served as a blank for the measurement (3 wells)—or the respective DMSO dilution of the substance (2–4 wells). The concentration of the solvent DMSO in each measured solution was 1%. The concentration of the compound corresponds to a 1:100 dilution compared to the respective DMSO dilution. The well plate bottom was cleaned with a lint-free cloth and compressed air and inspected for impurities before measurement. After shaking at 500 rpm for 10 s (double orbital), the measurement was carried out in the nephelometer with the laser intensity set to 80% and beam focus of 2.5 mm at a temperature of 25°C.
The obtained measuring points, relative nephelometric units (RNU) per compound concentration, were used to model two straight lines: one straight line with constant low readings and slope → 0 characterises the concentration range where no precipitation has taken place yet; The other straight line has a steep slope and increase of the RNU per concentration and characterises the concentrations at which precipitation takes place in the respective sample vessels.
The evaluation was carried out by calculating the two straight lines and their point of intersection. Outliers and values in a saturation range for the kick-off curve (usually >800 kRNU) were not used to create the straight lines and are listed separately in the evaluation file. […] The x-value of the intersection of the two straight lines represents the kinetic solubility. The results of two dilution series are additionally indicated as range (in brackets). For measurements of 3 or more series, a mean value with standard deviation is provided. The logS value describes the decadic logarithm of the molar solubility: logS (molar solubility [M]).

The target in data set [3] is trypanothione synthetase of L. infantum (LiTryS) (Leishmania infantum, UniProt A4I2Z3). As to the kind of experiment: TryS activity screening assay on recombinant LiTryS. In kind it is biochemical. The settings on record: for activity at 30 µM: read-out: LiTryS activity [% at 30 μM]; for LiTryS activity [% at 30 μM]: recombinant TryS, % activity at 30 μM compound, errors 2 SD. On the procedure: (§1) TryS from different trypanosomatids was produced in recombinant form with an N-terminal His-tag. The constructs pET-15b TbTryS and pET-28c(+)LiTryS were used to express TryS of T. b. brucei 427 (MITat1.4, GenBank accession protein id CAC87573.1), and L. infantum JPCM5 (GenBank accession protein id CAM69145.1). E. coli strain BL21 (DE3) served as the expression host. For TbTryS, the cells were cultured in a medium based in Terrific Broth and induction with isopropyl 1-thio-β-D-galactopyranoside (IPTG), while for LiTryS, the cells were cultured in ZYM-5052 auto-induction medium. For a detailed description of the expression, see Benítez et al.. The purification was performed by immobilised metal affinity chromatography in a HisTrap Fast Flow column (GE Healthcare) followed by size exclusion chromatography. […] The fractions containing recombinant TryS with ≥95% purity were pooled and concentrated to >10 mg protein/mL using a 10 kDa cut-off Amicon filter (Millipore, Billerica, CA). Glycerol was added at a final concentration of 40% (v/v). The samples were stored at -80°C. Enzyme purity and activity were assessed by SDS-PAGE (12%) under reducing conditions and by the end-point TryS assay (see TryS activity screening assay), respectively. Protein concentration was determined using the bicinchoninic acid assay with bovine serum albumin as standard. The protocols yielded 25–30 mg TbTryS or LiTryS per litre of culture medium and homogeneous specific activity.
Sequence of trypanothione synthetase of L. infantum (LiTryS) (A4I2Z3 entry or part of it): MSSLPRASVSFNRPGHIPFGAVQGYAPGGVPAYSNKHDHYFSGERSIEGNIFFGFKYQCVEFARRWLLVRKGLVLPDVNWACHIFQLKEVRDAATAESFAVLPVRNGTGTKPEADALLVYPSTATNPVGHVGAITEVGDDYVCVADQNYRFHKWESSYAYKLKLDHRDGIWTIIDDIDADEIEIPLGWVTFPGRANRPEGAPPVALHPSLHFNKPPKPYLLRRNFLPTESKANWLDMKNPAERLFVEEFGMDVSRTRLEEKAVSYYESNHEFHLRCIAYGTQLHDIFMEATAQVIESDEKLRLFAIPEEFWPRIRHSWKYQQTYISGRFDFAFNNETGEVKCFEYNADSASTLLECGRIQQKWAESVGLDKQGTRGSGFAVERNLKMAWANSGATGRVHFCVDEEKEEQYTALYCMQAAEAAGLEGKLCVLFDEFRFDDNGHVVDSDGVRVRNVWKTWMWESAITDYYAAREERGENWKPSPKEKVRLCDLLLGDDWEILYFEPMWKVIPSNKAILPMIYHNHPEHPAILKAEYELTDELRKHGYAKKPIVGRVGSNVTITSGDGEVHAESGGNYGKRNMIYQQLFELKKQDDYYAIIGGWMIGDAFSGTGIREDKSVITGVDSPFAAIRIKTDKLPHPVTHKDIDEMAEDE
(§2) For all TryS, ATP was used at 150 μM because of a high background signal at higher concentrations and Spd fixed at 2 mM, in agreement with the intracellular levels calculated from data reported in the literature for trypanosomatids. GSH was adjusted to 0.05 and 0.25 mM for TbTryS and LiTryS, respectively, to avoid substrate inhibition or to approach physiological concentrations. […] Microtiter plate wells were loaded with 5 μL of the test compound, DMSO (reaction control) or a TryS specific inhibitor (inhibition control) and 40 μL of MM solution. The reactions were then started by adding 5 μL of TryS (2 and 3*10^−5 μmol*min^-1*mL^-1 for LiTryS and TbTryS, respectively) and stopped after 15 min with 200 μL BIOMOL® GREEN reagent (Enzo Life Sciences). The compounds used as inhibition control were added at concentrations that inhibited 50% TryS activity: 30 μM and 150 nM MOL2008 for TbTryS and LiTryS, respectively. Blanks were prepared for each condition by adding 5 μL of screening reaction buffer instead of the enzyme. The TryS activity is calculated as follows: TrySactivity%=A650nmCi-A650nmCiB/A650nmE-A650nmEB*100%
(§3) A650 nm Ci is the mean absorbance at 650 nm for the reaction test with compound I (Ci), A650 nm CiB is the mean absorbance at 650 nm for the blank control with compound I (CiB), A650 nm E is the mean absorbance at 650 nm for the reaction control with DMSO (E) and A650 nm EB is the mean absorbance at 650 nm for the blank control with DMSO (EB). The errors were expressed as 2 standard deviations (SD), SD estimated as σ^n−1.

Data set [4] has as its system trypanothione synthetase of T. b. brucei (TbTryS). Kind of data set: TryS activity screening assay on recombinant TbTryS. In kind it is biochemical. The note with it: % activity at 30 μM compound, errors 2 SD. On the procedure: as §1, §2, §3
In data set [5] the test system is bloodstream form of T. b. brucei strain 427. Kind of data set: Viability assay for T. b. brucei (whole parasite, bioluminescence). In kind it is cell-based. The note with it: 24 h; for T. b. brucei (BS) proliferation [% at 10 μM]: 10 μM compound. On the procedure:
Viability assay for T. b. brucei. The bloodstream form of the monomorphic T. b. brucei strain 427, cell line 5141313, constitutively and stably expressing an ectopic copy of the Photinus pyralis red-shifted luciferase, was cultured in vitro with HMI-9 medium, supplemented with 10% fetal bovine serum, 10 U/mL penicillin (Gibco), 10 μg/mL streptomycin (Gibco), 0.2 μg/mL bleomycin (Jena Bioscience), 4 μg/mL G418 disulfate salt (Sigma-Aldrich) and 0.2 μg/mL puromycin (Invitrogen), inside a humidified incubator (Thermo Fisher Scientific) with controlled temperature (37°C) and CO2 (5%) in a 25 or 75 cm^2 vented-cap culture-flask. The anti-trypanosomal activity of compounds was evaluated in a 96-well culture plate containing 2.2 μL/well DMSO (negative control) or compounds dissolved in DMSO (1% final concentration), and 220 μL/well of a suspension of 1 × 10^5 parasites/mL. The plates were incubated at 37°C and 5% CO2 for 24 h. Next, each well was transferred to a 96-well black plate, and 20 μL of a solution containing d-luciferin (1.5 mg/mL in PBS glucose 1% w/v) and Triton X-100 (0.05% v/v) was added. Bioluminescence signal was measured in a LUMIstar OPTIMA Microplate luminometer using the following settings: 10 s shaking, 5 s/well acquisition, 0.2 s measurement delay, maximum gain, and 37°C. For the bioluminescence assay, parasite viability was calculated according to the following formula: parasiteviability%=BLcpd-BLblank/BLneg-BLblank*100%
BL refers to the mean of bioluminescence signal corresponding to the tested compound (cpd), the blank (blank, complete media containing 1% v/v DMSO), or the negative control (neg, parasites treated with 1% v/v DMSO). EC50 values were determined from concentration-response curves fitted to a four-parameter sigmoid equation using the GraphPad Prism software (version 6.0). All errors are expressed as one SD, estimated as σ^n-1. For a detailed explanation of the protocol, see Dibello et al..

As usually defined, the viability is the share of living cells, or the viability signal relative to a control. Broadly, the kinetic solubility is the concentration staying in solution when a stock, usually in DMSO, is diluted into the medium. With `CON=C1CCC(=O)N(CC(=O)NCCN2CCNCC2)c2ccccc21` (mixture of isomers) [5d, (E/Z)-2-[5-(Methoxyimino)-2-oxo-2,3,4,5-tetrahydro-1H-benzo[b]azepin-1-yl]-N-[2-(piperazin-1-yl)ethyl]acetamide dihydrochloride], in data set [1], the viability at 20 µM came out at 74.9 ± 11.2%. In addition, the kinetic solubility at 10 s in data set [2] is over 0.001 M. The activity at 30 µM in data set [3] came to 97.5 ± 4.7%.

Turning to `Cl.O=C(CN1C(=O)CCCc2ccccc21)N1CCNCC1` [2q, 1-[2-Oxo-2-(piperazin-1-yl)ethyl]-1,3,4,5-tetrahydro-2H-benzo[b]azepin-2-one hydrochloride], the solubility (kinetic) at 10 s in data set [2] was over 0.00398 M. In data set [3], the activity at 30 µM is 113 ± 10.7%.

The EC50 is the concentration at which the effect is half-maximal. For `O=C(O)CN1C(=O)Cc2c([nH]c3ccc(I)cc23)-c2ccc(Cl)cc21` [9a, 2-(3-Chloro-9-iodo-6-oxo-7,12-dihydrobenzo[2,3]azepino[4,5-b]indol-5(6H)-yl)acetic acid], the “TbTryS activity [% at 30 μM]” value in data set [4] is recorded as 102.9 ± 6.7%. In addition, in data set [3], the activity at 30 µM amounted to 67.2 ± 3.9% and the “LiTryS activity [% at 30 μM]” value is reported as “moderate inhibitory activity”. Besides, the “T. b. brucei (BS) proliferation [% at 10 μM]” value (“T. b. brucei … [% at 10 μM]” below) in data set [5] worked out at 24.2 ± 3.4%. In addition, in data set [5] (Trypanosoma brucei, read-out: T. b. brucei (BS) [EC50), the EC50 turned out to be 10.5 ± 1.3 µM.

For `O=C(O)CN1C(=O)Cc2c([nH]c3ccc(Cl)cc23)-c2ccc(Cl)cc21` [9b, 2-(3,9-Dichloro-6-oxo-7,12-dihydrobenzo[2,3]azepino[4,5-b]indol-5(6H)-yl)acetic acid], the “TbTryS activity [% at 30 μM]” value in data set [4] is recorded as 104.0 ± 10.1%. Besides, the activity at 30 µM in data set [3] turned out to be 90.2 ± 6.7%. For the same compound, the “T. b. brucei … [% at 10 μM]” value in data set [5] is listed as 56.4 ± 3.8%.

Consider `O=C(O)CN1C(=O)Cc2c([nH]c3ccc(C(F)(F)F)cc23)-c2ccc(Cl)cc21` [9c, 2-(3-Chloro-6-oxo-9-trifluoromethyl-7,12-dihydrobenzo[2,3]azepino[4,5-b]indol-5(6H)-yl)acetic acid], for which, in data set [4], the “TbTryS activity [% at 30 μM]” value amounted to 110.2 ± 11.5%. In data set [3], the activity at 30 µM worked out at 62.4 ± 6.4% and the “LiTryS activity [% at 30 μM]” value was “moderate inhibitory activity”. For the same compound, the “T. b. brucei … [% at 10 μM]” value in data set [5] was found to be 61.6 ± 10.2%.

The values above are taken from publication PMC10688702, “The indole motif is essential for the antitrypanosomal activity of N^5-substituted paullones” (PLOS ONE, 2023).
